The test system of data set [1] is Ebolavirus (EBOV). The data set is described as follows: organism not typed. The class given is cell-based. Conditions: for IC50: read-out: EBOV IC50.
In data set [2] the test system is endosomal acidification in HEK293 cells. The data set is described as follows: cells. The class given is cell-based. Conditions: for IC50: read-out: HEK AO IC50.
The test system of data set [3] is endosomal acidification in A549 cells. Briefly: Inhibition of cellular endosomal acidification, acridine orange (AO), A549 cells. The class given is cell-based.
For data set [4], the target named is T1, V-ATPase (Homo sapiens, UniProt P27449+Q93050). Briefly: Acridine orange quenching in isolated HEK293 vesicles (proton-pumping function of V-ATPase). The class given is biochemical.
T1 sequence (P27449 whole entry, looked up): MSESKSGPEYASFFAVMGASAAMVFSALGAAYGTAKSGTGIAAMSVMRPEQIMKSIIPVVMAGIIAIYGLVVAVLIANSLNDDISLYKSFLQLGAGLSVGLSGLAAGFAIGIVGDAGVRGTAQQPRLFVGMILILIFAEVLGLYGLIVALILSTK
T1 sequence (Q93050 whole entry, looked up): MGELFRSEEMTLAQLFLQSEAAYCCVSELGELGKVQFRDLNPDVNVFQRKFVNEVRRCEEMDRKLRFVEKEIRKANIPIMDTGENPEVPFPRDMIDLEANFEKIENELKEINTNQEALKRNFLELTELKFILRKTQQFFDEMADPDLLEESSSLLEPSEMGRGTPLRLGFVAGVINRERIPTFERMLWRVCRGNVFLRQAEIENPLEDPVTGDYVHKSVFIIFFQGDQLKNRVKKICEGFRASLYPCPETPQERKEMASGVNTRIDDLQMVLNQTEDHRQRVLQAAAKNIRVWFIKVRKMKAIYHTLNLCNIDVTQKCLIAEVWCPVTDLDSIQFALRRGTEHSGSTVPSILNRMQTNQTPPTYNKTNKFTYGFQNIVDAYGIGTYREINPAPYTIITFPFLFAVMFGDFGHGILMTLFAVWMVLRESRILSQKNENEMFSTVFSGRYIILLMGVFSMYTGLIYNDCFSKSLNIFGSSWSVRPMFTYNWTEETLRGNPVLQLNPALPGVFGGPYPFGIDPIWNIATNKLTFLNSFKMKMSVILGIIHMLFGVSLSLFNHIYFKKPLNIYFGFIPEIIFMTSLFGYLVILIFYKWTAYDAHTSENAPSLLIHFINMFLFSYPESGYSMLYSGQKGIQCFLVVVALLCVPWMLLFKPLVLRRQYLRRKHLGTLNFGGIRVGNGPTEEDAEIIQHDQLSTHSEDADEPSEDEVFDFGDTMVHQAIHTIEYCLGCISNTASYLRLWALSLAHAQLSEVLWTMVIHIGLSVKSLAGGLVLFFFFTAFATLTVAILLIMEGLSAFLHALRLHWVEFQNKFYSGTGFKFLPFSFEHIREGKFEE
In data set [5] the target is T1, V-ATPase. The class given is biochemical.
The subject of data set [6] is Marburg virus (MARV). It counts as cell-based.
Data set [7] relates to filoviral infection of primary human macrophages (PHM). The class given is cell-based, filovirus. Conditions: read-out: PHM Antiviral IC50.
Data set [8] can be described thus: Cytotoxicity (MTT), A549 cells. The following applies: human.
Data set [9] is described as follows: in vitro. Conditions: human.
Data set [10] relates to endosomal pH of HEK293 cells. The data set is described as follows: Intracellular endosomal pH, FITC-dextran, HEK293 cells. The class given is cell-based. Conditions: HEK293, 4 h, 1-3 μM, FIG. 1C.
The test system of data set [11] is cytosolic pH of HEK293 cells. The data set is described as follows: Cytosolic pH, BCECF-AM, HEK293 cells. It counts as cell-based. Conditions: FIG. 1B.
For data set [12], the system named is HEK293 cells.
The subject of data set [13] is A549 cells. Briefly: Cytotoxicity (MTT), A549 cells. The following applies: read-out: A549 CC50, 72 h, MTT.

Read-outs that look alike come from different tables or passages of the source.

On to `COc1cc2c(OCCCN3CCOCC3)c3c(c(-c4ccc5c(c4)OCO5)c2cc1OC)C(=O)OC3` [Compound 2g, 9-(benzo[d][1,3]dioxol-5-yl)-6,7-dimethoxy-4-(3-morpholinopropoxy)naphtho[2,3-c]furan-1(3H)-one], for which the IC50 in data set [1] was found to be 0.107 ± 0.0237 µM; in data set [2], 0.0743 ± 0.0239 µM; in data set [3], 0.0561 ± 0.0159 µM; in data set [6], 0.135 ± 0.0114 µM; in [7], 0.0577 ± 0.0086 µM. In addition, the “times better activity than diphyllin (proton pumping activity of V-ATPase)” value in [4] came out at 7 times. Moreover, the “inhibition of ATP hydrolysis, in words” value in data set [5] is recorded as “inhibited ATP hydrolysis to a similar extent”. The compound also had a CC50 at 72 h in data set [8] of over 100 µM.
On to `COc1cc2c(O)c3c(c(-c4ccc5c(c4)OCO5)c2cc1OC)C(=O)N(/N=C/c1ccc(C#N)cc1)C3` [Compound 3g, (E)-4-(((9-(benzo[d][1,3]dioxol-5-yl)-4-hydroxy-6,7-dimethoxy-1-oxo-1,3-dihydro-2H-benzo[f]isoindol-2-yl)imino)methyl)benzonitrile], for which the IC50 in [1] (HeLa) was 1.69 ± 0.233 µM; in data set [2] (Homo sapiens, HEK293, 4 h), over 10 µM.
On to `COc1cc2c(OCCCN3CCN(CCO)CC3)c3c(c(-c4ccc5c(c4)OCO5)c2cc1OC)C(=O)OC3` [Compound 2i, 9-(benzo[d][1,3]dioxol-5-yl)-4-(3-(4-(2-hydroxyethyl)piperazin-1-yl)propoxy)-6,7-dimethoxynaphtho[2,3-c]furan-1(3H)-one], for which the IC50 in data set [1] is 0.0762 ± 0.0146 µM; in data set [2], 0.104 ± 0.0212 µM.
For `COc1cc2c(O)c3c(c(-c4ccc5c(c4)OCO5)c2cc1OC)C(=O)N(/N=C/c1c(F)c(F)c(F)c(F)c1F)C3` [Compound 3h, (E)-9-(benzo[d][1,3]dioxol-5-yl)-4-hydroxy-6,7-dimethoxy-2-(((perfluorophenyl)methylene)amino)-2,3-dihydro-1H-benzo[f]isoindol-1-one], the IC50 in [1] (HeLa) is 8.74 ± 2.18 µM; in data set [2] (Homo sapiens, HEK293, 4 h), over 10 µM.
With `C#CCOc1c2c(c(-c3ccc4c(c3)OCO4)c3cc(OC)c(OC)cc13)C(=O)OC2` [Compound 2d, 9-(benzo[d][1,3]dioxol-5-yl)-6,7-dimethoxy-4-(prop-2-yn-1-yloxy)naphtho[2,3-c]furan-1(3H)-one], the IC50 in data set [1] (HeLa) amounted to 0.175 ± 0.0217 µM; in [2] (Homo sapiens, HEK293, 4 h), 0.263 ± 0.0466 µM. The compound also displayed a CC50 in [9] of 2.04 µM.
As to `COc1cc2c(O)c3c(c(-c4ccc5c(c4)OCO5)c2cc1OC)C(=O)N(/N=C/c1ccc(Cl)cc1)C3` [Compound 3d, (E)-9-(benzo[d][1,3]dioxol-5-yl)-2-((4-chlorobenzylidene)amino)-4-hydroxy-6,7-dimethoxy-2,3-dihydro-1H-benzo[f]isoindol-1-one], the results for the IC50 in data set [1], in [2] and in data set [3] were 1.17 ± 0.518 µM, 9.93 ± 0.14 µM and 8.44 ± 0.367 µM, respectively. The “times less effective than diphyllin (AO quenching)” value in [4] is reported as 4 times. In addition, the CC50 in data set [9] amounted to 28.4 ± 2.71 µM. Besides, the CC50 at 72 h in [8] amounted to 78 ± 26.4 µM.
With `COc1cc2c(OC)c3c(c(-c4ccc5c(c4)OCO5)c2cc1OC)C(=O)OC3` [Compound 2b, 9-(benzo[d][1,3]dioxol-5-yl)-4,6,7-trimethoxynaphtho[2,3-c]furan-1(3H)-one], the IC50 in data set [1] came out at 0.171 ± 0.0402 µM; in [2] it was 0.265 ± 0.0586 µM; in data set [3], 0.0582 ± 0.00876 µM. The “inhibition of ATP hydrolysis, in words” value in data set [5] is “inhibited ATP hydrolysis to a similar extent”. The CC50 in data set [9] was determined as 5.73 ± 0.841 µM. The CC50 at 72 h in data set [8] was over 100 µM.
`COc1cc2c(O)c3c(c(-c4ccc5c(c4)OCO5)c2cc1OC)C(=O)N(/N=C/c1cccnc1)C3` [Compound 3c, (E)-9-(benzo[d][1,3]dioxol-5-yl)-4-hydroxy-6,7-dimethoxy-2-((pyridin-3-ylmethylene)amino)-2,3-dihydro-1H-benzo[f]isoindol-1-one]: the IC50 in [1] stood at 4.48 ± 0.467 µM; in [2] it was 8.71 ± 0.769 µM; in data set [3] it was 11.6 µM. In addition, the “times less effective than diphyllin (AO quenching)” value in data set [4] turned out to be 2 times. Moreover, the CC50 in data set [9] turned out to be 49.9 ± 15.9 µM. The same compound displayed a CC50 at 72 h in data set [8] of 50.1 ± 27.7 µM.
Regarding `COc1cc2c(O)c3c(c(-c4ccc5c(c4)OCO5)c2cc1OC)C(=O)N(/N=C/c1ccccc1)C3` [Compound 3b, (E)-9-(benzo[d][1,3]dioxol-5-yl)-2-(benzylideneamino)-4-hydroxy-6,7-dimethoxy-2,3-dihydro-1H-benzo[f]isoindol-1-one], the IC50 is 6.63 ± 0.437 µM in data set [1] (HeLa) and over 10 µM in data set [2] (Homo sapiens, HEK293, 4 h).
`COc1cc2c(O)c3c(c(-c4ccc5c(c4)OCO5)c2cc1OC)C(=O)OC3` [Compound 2a, 9-(benzo[d][1,3]dioxol-5-yl)-4-hydroxy-6,7-dimethoxynaphtho[2,3-c]furan-1(3H)-one, reference compound]: the IC50 in [1] is 0.678 ± 0.161 µM; in data set [2] it was 0.476 ± 0.0601 µM; in data set [3], 0.149 ± 0.0205 µM; in data set [6], 1.77 ± 0.08 µM. For the same compound, the “times less potent than bafilomycin A1 (V-ATPase-mediated fluorescent quenching)” value in data set [4] is recorded as “about 7.5 times”. Further, the “inhibition of ATP hydrolysis, in words” value in data set [5] is “inhibited ATP hydrolysis to a similar extent”. The “endosomal pH after treatment” value in [10] is listed as about 7 pH. The “change in cytosolic pH compared to the vehicle treated control” value in data set [11] is “no significant change”. The CC50 at 72 h in data set [8] was determined as 50.1 ± 15.5 µM.
With `CO/C1=C\C(C)=C\[C@@H](C)[C@@H](O)[C@@H](C)C/C(C)=C/C=C/[C@H](OC)[C@@H]([C@@H](C)[C@@H](O)[C@H](C)[C@@]2(O)C[C@@H](O)[C@H](C)[C@@H](C(C)C)O2)OC1=O` [Baf A1, bafilomycin A1, reference compound], the IC50 in data set [1] turned out to be 0.0149 ± 0.00893 µM; in [2], 0.0405 ± 0.00331 µM; in data set [3], 0.0213 ± 0.00255 µM. For the same compound, the “change in cytosolic pH compared to the vehicle treated control” value in data set [11] is given as “no significant change”. For the same compound, the CC50 in [12] is 0.32 ± 0.042 µM; in [13], 0.479 ± 0.266 µM.
For `COc1cc2c(OCCCC#N)c3c(c(-c4ccc5c(c4)OCO5)c2cc1OC)C(=O)OC3` [Compound 2f, 4-((9-(benzo[d][1,3]dioxol-5-yl)-6,7-dimethoxy-1-oxo-1,3-dihydronaphtho[2,3-c]furan-4-yl)oxy)butanenitrile], the IC50 in data set [1] (HeLa) amounted to 0.0931 ± 0.0268 µM; in data set [2] (Homo sapiens, HEK293, 4 h), 0.0987 ± 0.0295 µM. In addition, the CC50 in data set [9] stood at 3.31 ± 0.74 µM.
On to `CCOC(=O)CN1CCN(CCCOc2c3c(c(-c4ccc5c(c4)OCO5)c4cc(OC)c(OC)cc24)C(=O)OC3)CC1` [Compound 2h, ethyl 2-(4-(3-((9-(benzo[d][1,3]dioxol-5-yl)-6,7-dimethoxy-1-oxo-1,3-dihydronaphtho[2,3-c]furan-4-yl)oxy)propyl)piperazin-1-yl)acetate], for which the IC50 in [1] stood at 0.132 ± 0.0323 µM; in data set [2] it was 0.172 ± 0.0406 µM; in data set [3] it was 0.101 ± 0.0138 µM; in [6] it was 0.0816 ± 0.0287 µM; in data set [7] it was 0.256 µM. The “inhibition of ATP hydrolysis, in words” value in data set [5] was “inhibited ATP hydrolysis to a similar extent”. Besides, the CC50 at 72 h in data set [8] was over 100 µM.
Take `CCOc1c2c(c(-c3ccc4c(c3)OCO4)c3cc(OC)c(OC)cc13)C(=O)OC2` [Compound 2c, 9-(benzo[d][1,3]dioxol-5-yl)-4-ethoxy-6,7-dimethoxynaphtho[2,3-c]furan-1(3H)-one]: the values for the IC50 in data set [1], in data set [2] and in data set [3] were 0.112 ± 0.0147 µM, 0.254 ± 0.049 µM and 0.0524 ± 0.0193 µM, respectively. For the same compound, the “inhibition of ATP hydrolysis, in words” value in [5] was “inhibited ATP hydrolysis to a similar extent”. In data set [9], this compound yielded a CC50 of 2.38 µM. Further, the CC50 at 72 h in data set [8] was 77.4 ± 11 µM.
As to `COc1cc2c(OC(C)=O)c3c(c(-c4ccc5c(c4)OCO5)c2cc1OC)C(=O)N(CCO)C3=O` [Compound 1e, 9-(benzo[d][1,3]dioxol-5-yl)-2-(2-hydroxyethyl)-6,7-dimethoxy-1,3-dioxo-2,3-dihydro-1H-benzo[f]isoindol-4-yl acetate], in data set [1], the “active in screen for inhibition of ebolavirus infection” value was “active”. For the same compound, the IC50 was 5.4 ± 2.92 µM in data set [1] (HeLa) and over 10 µM in data set [2] (Homo sapiens, HEK293, 4 h). Further, the “effect on endosomal acidification (AO fluorescence ratio), in words” value in [2] is listed as “did not cause a significant change in the fluorescence ratio”.
Take `COc1cc2c(O)c3c(c(-c4ccc5c(c4)OCO5)c2cc1OC)C(=O)N(N)C3` [Compound 3a, 2-amino-9-(benzo[d][1,3]dioxol-5-yl)-4-hydroxy-6,7-dimethoxy-2,3-dihydro-1H-benzo[f]isoindol-1-one]: the IC50 in [1] (HeLa) came to 3.94 ± 0.604 µM; in [2] (Homo sapiens, HEK293, 4 h), 9.06 ± 0.893 µM; in data set [3] (Homo sapiens), 8.11 ± 0.67 µM. Moreover, the “effect on endosomal acidification (AO fluorescence ratio), in words” value in [2] is “moderately inhibited acidification”. In data set [9], the CC50 came to 48.9 ± 3.61 µM. The same compound showed a CC50 at 72 h in data set [8] of 28.7 ± 16.6 µM.
As for `C#CCCCOc1c2c(c(-c3ccc4c(c3)OCO4)c3cc(OC)c(OC)cc13)C(=O)OC2` [Compound 2e, 9-(benzo[d][1,3]dioxol-5-yl)-6,7-dimethoxy-4-(pent-4-yn-1-yloxy)naphtho[2,3-c]furan-1(3H)-one], the IC50 in data set [1] came out at 0.0732 ± 0.0119 µM; in data set [2] it was 0.102 ± 0.019 µM; in data set [3], 0.0848 ± 0.0119 µM; in data set [6], 0.402 ± 0.0459 µM; in data set [7], 0.24 µM. In addition, the “times better activity than Bafilomycin A1 (proton pumping activity of V-ATPase)” value in data set [4] was 2 times. Moreover, in [4], the “times better activity than diphyllin (proton pumping activity of V-ATPase)” value amounted to 17 times. Besides, in data set [5], the “inhibition of ATP hydrolysis, in words” value is reported as “inhibited ATP hydrolysis to a similar extent”. The CC50 at 72 h in data set [8] was over 100 µM.

These data come from patent publication US11542257B2, “Arylnaphthalene compounds as vacuolar-ATPase inhibitors and the use thereof” (priority 2018, dated 2023).
